The test system of one data set is Chagas' disease. Particulars: dog, oral 50 mg/kg BID for 14 days; cited from earlier work.
A further data set deals with P-glycoprotein. The following applies: ref not given; cited from earlier work.
The conditions of data set [1]: ref not given, cited from earlier work.
Data set [2] deals with T1, CYP3A4 (Homo sapiens, UniProt P08684). Particulars: background statement on 1; cited from earlier work.
A further data set has as its system T cruzi. The following applies: T cruzi infected mice, 20 mg/kg BID (ip) for 27 days; cited from earlier work.
The next data set has as its system MDCK cell monolayers. Description: permeability in MDCK cell monolayers. It is filed as in vitro ADME. The following applies: in words.
For the next data set, the system named is T. cruzi parasites. The following applies: cited from earlier work.
Data set [3] can be described thus: stability to cultured liver microsomes. It is filed as in vitro ADME. Particulars: in words. (Liver microsomes are a subcellular fraction often used to study metabolism.)
Data set [4] deals with T1, CYP3A4. Briefly: inhibition of CYP3A4 in vitro. It is filed as in vitro ADME.
The nature of data set [5]: in vivo PK studies in mice. The following applies: PO 40 mg/kg.
The test system of data set [6] is intracellular T. cruzi in C2C12 host cells. Description: antitrypanosomal high-content imaging assay. It is filed as cell-based.

“Also recorded” adds a separate entry of the source. Read-outs that look alike come from different tables or passages of the source.

T1 sequence (P08684 whole entry): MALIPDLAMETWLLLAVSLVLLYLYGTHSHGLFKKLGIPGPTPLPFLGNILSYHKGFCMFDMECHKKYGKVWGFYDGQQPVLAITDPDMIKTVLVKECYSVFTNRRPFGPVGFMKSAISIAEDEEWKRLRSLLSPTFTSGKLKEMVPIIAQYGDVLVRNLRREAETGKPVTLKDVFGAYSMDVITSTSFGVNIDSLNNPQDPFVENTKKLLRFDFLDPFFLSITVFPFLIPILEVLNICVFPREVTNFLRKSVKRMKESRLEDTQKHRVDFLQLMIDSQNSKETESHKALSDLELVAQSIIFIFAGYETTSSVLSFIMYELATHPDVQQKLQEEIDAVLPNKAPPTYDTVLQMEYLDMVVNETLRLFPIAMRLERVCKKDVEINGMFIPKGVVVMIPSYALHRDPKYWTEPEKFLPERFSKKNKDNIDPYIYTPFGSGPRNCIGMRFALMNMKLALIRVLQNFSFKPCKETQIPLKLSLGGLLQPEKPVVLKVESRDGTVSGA

For `CN1CCN(C(=O)N[C@@H](Cc2ccccc2)C(=O)N[C@H](/C=C/S(=O)(=O)c2ccccc2)CCc2ccccc2)CC1` [Compound 1, K777], in the data set with Chagas' disease, the cardiac tissue damage result was “partially protected animals from cardiac tissue damage” and the parasitemia entry was “reduced parasitemia below levels detectable by hemocytometry”. Besides, the P-glycoprotein substrate entry with P-glycoprotein is “substrate for P-glycoprotein”. Also, the dose-exposure pharmacokinetics entry in data set [1] is “nonlinear dose-exposure pharmacokinetics”. For the same compound, the oral bioavailability in [1] (species not stated) is on record as 5–20%. Moreover, on CYP3A4 [2], the “CYP3A4 inhibition (in words)” value was “irreversibly inhibits CYP3A4; also recorded: low μM regime”.

On to `CCCCC(C(=O)COc1c(F)c(F)cc(F)c1F)n1cc([C@@](C)(NCc2ccc3ncccc3c2)C(C)C)nn1` (stereo partly drawn) [Compound 4], for which, in the data set on T cruzi, the “hematological cure (treated animals)” value is listed as 2/4. Also, the “Permeability in an MDCK cell monolayer assay” value in the data set with MDCK cell monolayers is “modest-to-low”. In addition, in the data set on T. cruzi parasites, the “activity against T. cruzi parasites in two different cell-based assays” value is recorded as “effective”. In [3], the “stability to cultured liver microsomes” value was “reasonable stability”. Also, at CYP3A4 [4], the “CYP3A4 inhibition (in words)” value is “low μM regime”.

Take `CCCCC(C(=O)COc1c(F)c(F)cc(F)c1F)n1cc([C@@](C)(NCc2ccc3ncccc3c2)C2CCCC2)nn1` (stereo partly drawn) [Compound 8]: in [5], the “Exposure following PO dosing relative to compound 4” value is “two-fold higher”.

As usually defined, the IC50 is the midpoint of a concentration-inhibition curve. On to `CCCCC(C(=O)COc1c(F)c(F)cc(F)c1F)n1cc([C@@](C)(NCc2ccn3nccc3n2)C(C)C)nn1` (stereo partly drawn) [Compound 20], for which, in [6] (Trypanosoma cruzi, C2C12, read-out: T. cruzi IC50), the 50% inhibitory concentration (IC50) amounted to 10 nM.

With `CCCCC(C(=O)COc1c(F)c(F)cc(F)c1F)n1cc([C@@](C)(NCc2ccn3nccc3n2)C2CCCC2)nn1` (stereo partly drawn) [Compound 21], the “Exposure following PO dosing relative to compound 4” value in [5] is recorded as “two-fold higher”. Also, the “improvement of in vitro potency relative to 4” value in data set [6] (assay not specified) was ~ 10 fold.

The values are drawn from publication PMC4737481 (Bioorganic & medicinal chemistry letters, 2015).
